{"source": "patent US8361992B2", "about": "(Dekk-Tec, Inc., priority 2009, dated 2013)", "key": {"[1]": {"experiment": "Stability profile of bulk 4-HOOI vs. 4-HOOI.Lys (HPLC, NMR)"}, "Rat glioma 9 L cells": {"test_system": "Rat glioma 9 L cells", "experiment": "9L rat glioma implanted subcutaneously in rats", "conditions": "doses as in Table 7", "protocol": "Rat glioma 9 L cells (10^6 cells) were implanted subcutaneously in female Hsd:SD rats. […] Temozolomide (TMZ) was administered orally three times, four days apart. The rats were followed for 54 days."}, "[2]": {"test_system": "Sprague Dawley female rats", "experiment": "Rat neurobehavioral modified Morris water maze and pathology", "format": "in vivo", "conditions": "for Pathology five days later (gross, confirmed by histology) / Memory and learning time intervals: single IP dose: IFOS 400, 4-HOOI 200, 4-HOOI.Lys 300 mg/kg; for Memory and learning time intervals: 1, 2, 3, 20 hours post-dosing", "protocol": "Rat Dosing: Neuro-oncology studies with 4-HOOI were conducted to evaluate the product as compared to ifosfamide in a rat neurobehavioral modified Morris water maze. Ifosfamide produces coma and neuro-edema in high doses. […] Timings (six at each time) were measured at 1, 2, 3, and 20 hours post-dosing to monitor learning and memory. […] Histological examinations confirmed the gross observations."}, "9 L rat glioma cells": {"test_system": "9 L rat glioma cells", "experiment": "Activity in vitro against 9L rat glioma cells in culture", "format": "cell-based", "conditions": "for IC50: dose range 0.1-1.00 μg/ml", "protocol": "The IC50 for each compound and also ifosfamide was determined (Table 3)."}, "[3]": {"test_system": "Human glioblastoma cell line U251", "conditions": "cited from earlier work"}, "humans": {"test_system": "humans", "conditions": "cited from earlier work"}, "[4]": {"test_system": "Human breast cancer cell line MX-1", "experiment": "MX-1 xenograft implanted SC in mice", "format": "in vivo", "conditions": "IP once per day for 5 days; for MX-1 T-C: 4-HOOI 90, IFOS 40, IPM 40 mg/kg/day", "method": "(§2) Human breast cancer cell lines MX-1 and ZR75-1 were implanted subcutaneously (SC). Human glioblastoma cell line U251 was implanted intracranially (IC) and P388 CPA-resistant murine leukemia cell line was injected intraperitoneally (IP). For IC implanted tumor cells, treatment was begun 5-7 days post-inoculation. For SC tumors, treatment was begun when the tumor was palpable (5-10 days post-inoculation). Mice were treated with the indicated dose of drug intraperitoneally once per day for 5 days."}, "[5]": {"test_system": "P388 CPA-resistant murine leukemia cell line", "experiment": "P388/CPA leukemia injected IP in mice", "format": "in vivo", "conditions": "IP once per day for 5 days, 4-HOOI 90, IFOS 40, IPM 40 mg/kg/day", "method": "as §2"}, "[6]": {"conditions": "for AUC values for acrolein (trapezoidal rule): 0-120, IV CPA 250, IFOS 400, 4-HOOI 100 mg/kg", "method": "Half of each plasma sample was lyophilized to collect ACR in a dry ice/methanol-cooled trap. […] For chloroacetaldehyde, the other half of the plasma sample was treated directly with the above trapping agent and the same procedure was used (6 mins) compared with synthetic controls."}, "[7]": {"test_system": "Human breast cancer cell line ZR75-1", "experiment": "ZR-75-1 xenograft implanted SC in mice", "format": "in vivo", "conditions": "IP once per day for 5 days, 4-HOOI 90, IFOS 40 mg/kg/day", "method": "as §2"}, "[8]": {"test_system": "NCI-H69 Small cell lung carcinoma", "experiment": "NCI-H69 xenograft (sc)", "format": "in vivo, human", "conditions": "sc implant; intraperitoneal treatment; MTD", "protocol": "(§1) 4-HOOI was tested against a number of additional solid tumor xenografts and leukemias."}, "SK-MEL-31 Melanoma": {"test_system": "SK-MEL-31 Melanoma", "experiment": "SK-MEL-31 xenograft (sc)", "format": "in vivo, human", "conditions": "sc implant; intraperitoneal treatment; MTD", "protocol": "as §1"}, "SAOS-2 Osteosarcoma": {"test_system": "SAOS-2 Osteosarcoma", "experiment": "SAOS-2 xenograft (sc)", "format": "in vivo, human", "conditions": "sc implant; intraperitoneal treatment; MTD", "protocol": "as §1"}, "[9]": {"test_system": "Human glioblastoma cell line U251", "experiment": "U251 glioblastoma implanted intracranially in mice", "conditions": "in vivo", "method": "as §2"}, "OVCAR-3 Ovarian": {"test_system": "OVCAR-3 Ovarian", "experiment": "OVCAR-3 xenograft (sc)", "format": "in vivo, human", "conditions": "sc implant; intraperitoneal treatment; MTD", "protocol": "as §1"}, "mice": {"test_system": "mice", "experiment": "Mouse IV dosing toxicology", "format": "in vivo", "protocol": "Specific emphasis was placed on documenting potential toxicities associated with IV administered peroxides, namely convulsions, hemolysis, arterial gas emboli-pulmonary damage, and neurological pathology.\nRanges of dosing were 60-400 mg/kg. […] Animals were monitored for 14 days post treatment."}, "[10]": {"test_system": "NCI-H23 Non-small cell lung carcinoma", "experiment": "NCI-H23 xenograft (sc)", "format": "in vivo, human", "conditions": "sc implant; intraperitoneal treatment; MTD", "protocol": "as §1"}}, "note": "Read-outs that look alike come from different tables or passages of the source.", "data": [{"molecule": "NCCCCC(N)C(=O)O.O=P1(NCCCl)OCCC(OO)N1CCCl", "note": "(stereo not shown) [4-HOOI•Lys]", "values": [{"measurement": "NMR", "setting": "[1]; Time 0", "result": "Stable"}, {"measurement": "NMR", "setting": "[1]; Time 2 months", "result": "Stable"}, {"measurement": "NMR", "setting": "[1]; Time 4 months", "result": "Stable"}, {"measurement": "NMR", "setting": "[1]; Time 6.5 months", "result": "Stable"}, {"measurement": "NMR", "setting": "[1]; Time 10 months", "result": "Stable"}, {"measurement": "CR (animals)", "setting": "Rat glioma 9 L cells; SC in female Hsd:SD rats, followed 54 days", "result": "9/9"}, {"measurement": "Hematuria", "setting": "Rat glioma 9 L cells; rats bearing 9L glioma", "result": "No hematuria"}, {"measurement": "Weight loss", "setting": "Rat glioma 9 L cells; rats bearing 9L glioma", "result": "No weight loss"}, {"measurement": "Pathology five days later (gross, confirmed by histology)", "setting": "[2]", "result": "did not reveal hemorrhagic cystitis, renal tubular necrosis, or bone marrow depletion"}, {"measurement": "Memory and learning time intervals", "setting": "[2]", "result": "no significant differences"}, {"measurement": "Notes", "setting": "9 L rat glioma cells", "result": "Stabilized form prevented"}, {"measurement": "IC50", "setting": "9 L rat glioma cells", "result": ">1.0", "unit": "µg/mL"}]}, {"molecule": "COc1nc(C(Cl)(Cl)Cl)c(Cl)c(OC(=O)O[C@H]2CC[C@@]3(C)C(=CC[C@H]4[C@@H]5CC[C@H]([C@H](C)CCCC(C)C)[C@@]5(C)CC[C@@H]43)C2)c1Cl", "note": "[DM-CHOC-PEN, 4-demethylcholesteryloxycarbonylpenclomedine]", "values": [{"measurement": "LTS in U251 glioblastoma", "setting": "[3]; Morgan et al. 2009", "result": 52, "unit": "% LTS"}]}, {"molecule": "O=P(O)(NCCCl)NCCCl", "note": "[IPM, isophosphoramide mustard]", "values": [{"measurement": "Dose limiting toxicity in humans", "setting": "humans", "result": "renal tubular necrosis was dose limiting"}, {"measurement": "MX-1 T-C", "setting": "[4]", "result": 2.1, "unit": "days"}, {"measurement": "P388/CPA (% ILS)", "setting": "[5]", "result": "+85 % ILS"}]}, {"molecule": "O=NN(CCCl)C(=O)NCCCl", "note": "[BCNU, bis-chloronitrosourea]", "values": [{"measurement": "ILS", "setting": "[3]; gold standard for the treatment of gliomas", "result": 72, "unit": "% ILS"}]}, {"molecule": "O=P1(N(CCCl)CCCl)NCCCO1", "note": "(stereo not shown) [CPA, cyclophosphamide]", "values": [{"measurement": "AUC values for acrolein (trapezoidal rule)", "setting": "[6]", "result": 1520, "unit": "mg·min/mL"}]}, {"molecule": "O=P1(NCCCl)OCCCN1CCCl", "note": "(stereo not shown) [IFOS, ifosfamide]", "values": [{"measurement": "ZR-75-1 CR (complete response)", "setting": "[7]", "result": "(17% CR)"}, {"measurement": "ZR-75-1 T-C", "setting": "[7]", "result": ">43.8", "unit": "days"}, {"measurement": "T-C (Days Delay), NCI-H69", "setting": "[8]", "result": 6.2, "unit": "days"}, {"measurement": "T-C (Days Delay), SK-MEL-31", "setting": "SK-MEL-31 Melanoma", "result": 10.9, "unit": "days"}, {"measurement": "T-C (Days Delay), SAOS-2", "setting": "SAOS-2 Osteosarcoma", "result": ">61.9", "unit": "days"}, {"measurement": "U251 CR (complete response, animals)", "setting": "[9]", "result": "(0/5 CR)"}, {"measurement": "U251 T-C", "setting": "[9]", "result": 50, "unit": "days"}, {"measurement": "Hematuria", "setting": "Rat glioma 9 L cells; rats bearing 9L glioma", "result": "observed"}, {"measurement": "T-C (Days Delay), OVCAR-3", "setting": "OVCAR-3 Ovarian", "result": 12.4, "unit": "days"}, {"measurement": "MX-1 LTS (long term survivors)", "setting": "[4]; 4-HOOI 90, IFOS 40 mg/kg/day", "result": "(No LTS)"}, {"measurement": "MX-1 T-C", "setting": "[4]", "result": 8.6, "unit": "days"}, {"measurement": "Clinical signs", "setting": "[2]; IFOS 400 mg/kg single IP dose", "result": "shakes and tremors"}, {"measurement": "Bone marrow evaluations", "setting": "[2]; IFOS 400 mg/kg single IP dose, five days later", "result": "pancytopenia"}, {"measurement": "Pathology five days later (gross, confirmed by histology)", "setting": "[2]", "result": "hemorrhagic cystitis with gross bleeding"}, {"measurement": "Memory and learning time intervals", "setting": "[2]", "result": "normal learning behavioral patterns"}, {"measurement": "AUC values for acrolein (trapezoidal rule)", "setting": "[6]", "result": 960, "unit": "mg·min/mL"}, {"measurement": "Urinary hemorrhagic cystitis", "setting": "[6]; mice", "result": "the pathology occurred at day 5 post dosing"}, {"measurement": "Highest tolerated single IV dose", "setting": "mice", "result": 400, "unit": "mg/kg"}, {"measurement": "Notes", "setting": "9 L rat glioma cells", "result": "Inactive without"}, {"measurement": "IC50", "setting": "9 L rat glioma cells; Glioma cell, read-out: IC50", "result": "> 1", "unit": "µg/mL"}, {"measurement": "P388/CPA (% ILS)", "setting": "[5]", "result": "+42 % ILS"}, {"measurement": "T-C (Days Delay), NCI-H23", "setting": "[10]", "result": 13.7, "unit": "days"}]}]}
